From publication PMC12523843, “Kuwanon A Targeted YWHAB in Hepatocellular Carcinoma Cells to Inhibit the Raf/MEK/ERK Signaling Pathway” (Cells, 2025)
Read-outs that look alike come from different tables or passages of the source.

Key:
[1] = test system: HCC cells (MHCC97 H and SMMC 7721); assay: Flow cytometry cell cycle analysis, result stated for HCC cells; type: cell-based, human; conditions: 48 h
Description: Cells were digested, centrifuged, and resuspended in PBS buffer following 48 h of treatment with either KA or DMSO. Prior to cell cycle analysis, the cells were fixed in 75% ethanol for a minimum of 24 h, followed by labeling with PI and RNase (Beyotime, Shanghai, China). Subsequently, the cells were analyzed using flow cytometry. Each group consisted of three replicates.

SMMC 7721 cells = assay: MTT IC50 determination in SMMC 7721; type: cell-based; conditions: Homo sapiens, gradient concentrations, 48 h
Description: (§1) Cell viability was assessed using MTT experiments. Cells, together with KA, were seeded into 96-well plates at a density of 2000 cells per well with three replicates per condition. DMSO was used as a control. At designated time points, 20 μL of MTT (Sigma, St. Louis, MO, USA) solution was added to each well and incubated for 3 h. After removing the culture medium, 200 μL of DMSO was added to dissolve the formazan crystals. The absorbance was then measured using a microplate reader at a wavelength of 560 nm.

CDK and cyclin proteins = assay: Western blot of CDK and cyclin proteins; type: cell-based, human; conditions: 48 h, MHCC97 H and SMMC 7721
Description: (§2) Cells were harvested using a cell scrape and washed three times with PBS buffer, then lysed on ice in RIPA lysis buffer (Beyotime, Shanghai, China). Protein concentration was determined using a BCA protein assay kit (Beyotime, Shanghai, China). Subsequently, 60 µg of protein was mixed with 5× loading buffer and heated in a 100 °C water bath for 15 min. The samples were subjected to SDS-PAGE electrophoresis, followed by transfer onto a PVDF membrane (Millipore, Darmstadt, Germany). The membrane was blocked with 5% BSA for 2 h at room temperature and incubated sequentially with primary and HRP-conjugated secondary antibodies. Finally, signal detection was performed using an ECL detection system (Clinx, Shanghai, China).

[2] = test system: N-cadherin and E-cadherin; assay: Western blot of EMT markers; type: cell-based, human; conditions: 48 h
Description: as §2

YWHAB [3] = target: T1, YWHAB (Homo sapiens, UniProt P31946); assay: Cell thermal shift assay (CETSA); type: binding; parameters: endogenous in cells; host or cells: MHCC97 H and SMMC 7721; conditions: high concentration of KA, 3 h, MHCC97 H and SMMC 7721, 44–65 °C
T1 sequence (P31946 1-246): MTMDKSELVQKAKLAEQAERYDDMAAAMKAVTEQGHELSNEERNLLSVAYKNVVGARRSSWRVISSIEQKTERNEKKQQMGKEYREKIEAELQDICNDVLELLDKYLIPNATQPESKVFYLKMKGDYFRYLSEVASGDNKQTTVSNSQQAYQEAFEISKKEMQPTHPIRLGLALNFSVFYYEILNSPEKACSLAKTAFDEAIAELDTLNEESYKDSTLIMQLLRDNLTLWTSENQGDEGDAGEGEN
Description: The cells were treated with a high concentration (3–4 times the IC50) of the drug for 2–4 h before being digested with trypsin. Then the cells were washed 1–2 times with PBS. Resuspend the cells in […] of PBS. Subsequently, divided them into eight portions, each containing 50 µL. Set the appropriate temperature range and gradient. In our research, the range of 44–65 °C was used. Each portion of cells was treated at the specified temperature for 3–5 min. Then, the cells were repeatedly frozen and thawed using liquid nitrogen. After high-speed centrifugation (20,000× g, 20 min), we took the top layer of supernatant. After adding an appropriate amount of loading buffer, we conducted the Western Blot assay. Quantitative analysis was used to determine whether the compound has enhanced the thermal stability of the target protein.

[4] = test system: HCC cells (MHCC97 H and SMMC 7721); assay: Transwell migration (without Matrix-Gel) and invasion (with Matrix-Gel) assay; type: cell-based, human
Description: The Transwell assay measured the migration and invasion of cells by calculating the number of cells that passed through the material. Prior to the Transwell migration assay, cells were serum-starved in FBS-free culture medium for 24 h. The cells were then detached using trypsin, washed 1–2 times with PBS, and resuspended in DMEM. Approximately 50,000–100,000 cells were seeded into the upper chamber of the Transwell insert. The lower chamber was filled with 600 μL of complete medium containing the test compound. […] After incubation, the migrated cells on the lower membrane surface were fixed with 4% paraformaldehyde (PFA) and stained with 0.1% crystal violet. Non-migrated cells remaining in the upper chamber were carefully removed with a cotton swab. Finally, the stained cells were visualized under a microscope. If matrix gel was needed, it should be added according to the instructions (Beyotime, Shanghai, China) before the cells were seeded.

YWHAB [5] = target: T1, YWHAB; assay: Epoxy-activated Sepharose 6B pull-down; type: binding; parameters: host or cells: HEK 293T; conditions: KA immobilized on Sepharose 6B, HEK 293T overexpressing YWHAB
Description: Epoxy-activated Sepharose 6B (Cytia, Washington, DC, USA) affinity media was used to bind KA molecules following the media’s absorbency swelling. The Sepharose 6B media was co-incubated with KA or DMSO and gently agitated overnight at room temperature. The product was then thoroughly washed through at least three cycles. Any remaining active groups were blocked using 1 M ethanolamine, incubated for 4 h at 37 °C. The 6B media, now bound with KA or DMSO, were further incubated with the cell lysate sample overnight, with gentle agitation at 4 °C. The media was washed again through a minimum of three cycles. A suitable amount of loading buffer was added, and the samples were heated in a 100 °C water bath for 15 min. The resulting supernatant was then ready for use in SDS-PAGE electrophoresis.

MHCC97 H cells = assay: MTT IC50 determination in MHCC97 H; type: cell-based, human; conditions: Homo sapiens, MHCC97H
Description: as §1

[6] = test system: nuclear translocation of ERK; assay: ERK nuclear translocation (nuclear/cytoplasmic extraction, immunofluorescence); type: cell-based, human; conditions: 10 μM, 48 h, confocal microscopy
Description: After treating HCC cells with KA or DMSO, the cells were collected by cell scraping. Adding an appropriate amount of PMSF and reagent A (Nuclear and Cytoplasmic Protein Extraction Kit, Beyotime, Shanghai, China). Vortexed and then ice bathed for 15 min. Adding the reagent B provided in the kit mentioned before. Then vortexed and ice bathed for 1 min. Vortexed again. Centrifuged at 14,000× g for 5 min. The supernatant was cytoplasmic protein. Adding a certain amount of nuclear protein extraction reagent to the precipitate. Multiple vortices within 30 min. Centrifuged at 14,000× g for 10 min. The obtained supernatant was the nuclear protein.

[7] = test system: HCC cells (MHCC97 H and SMMC 7721); assay: EdU staining proliferation assay; type: cell-based, human
Description: EdU staining was employed to assess cell proliferation following the manufacturer’s guidelines (Beyotime, Shanghai, China). A total of 2 × 10^4 cells, together with KA or DMSO, were seeded into 24-well plates and cultured for 48 h. Subsequently, the cells were incubated with […] EDU for 2 h, followed by fixation with 4% PFA for 15 min, permeabilization with 0.3% Triton X-100 for 10 min, and reaction with Click reaction cocktails for 30 min. Finally, the nuclei were stained with DAPI for 30 min at room temperature before microscopic examination.

Compound: CC(C)=CCc1c(-c2ccc(O)c3c2OC(C)(C)C=C3)oc2cc(O)cc(O)c2c1=O [KA, Kuwanon A]
- cell cycle arrest (flow cytometry) ([1]; concentration-dependent): significant G0/G1 phase arrest
- G0/G1 phase arrest under YWHAB overexpression ([1]; YWHAB-overexpressing cells, KA 15 μM): less KA-induced G0/G1 phase arrest
- IC50 (SMMC 7721 cells): 9.85 µM
- cell cycle-related proteins (Western blot) (CDK and cyclin proteins): downregulation of corresponding cell cycle-related proteins
- E-cadherin level (Western blot) ([2]; MHCC97 H and SMMC 7721): upregulation of E-cadherin
- N-cadherin level (Western blot) ([2]; MHCC97 H and SMMC 7721): downregulation of N-cadherin
- N-cadherin/E-cadherin ratio under YWHAB overexpression ([2]; YWHAB-overexpressing HCC cells, KA 15 μM): minimal changes
- thermal stability of YWHAB (CETSA) (YWHAB [3]): increased thermal stability of YWHAB
- migration/invasion under YWHAB overexpression (wound healing and Transwell) ([4]; YWHAB-overexpressing HCC cells compared to normal tumor cells, KA 15 μM, 48 h): less effect of KA on the migration/invasion
- invasive capacity of HCC cells (Transwell) ([4]; with Matrix-Gel): inhibited the invasive capacity of HCC cells
- number of HCC cells migrating through the polycarbonate membrane (Transwell) ([4]; without Matrix-Gel): significant decrease in the number of HCC cells migrating
- interaction with YWHAB (pull-down) (YWHAB [5]): direct interaction
- IC50 (MHCC97 H cells; MTT method, read-out: IC50 in MHCC97 H (screen)): < 20 µM
- IC50 (MHCC97 H cells; MTT, gradient concentrations, 48 h, read-out: IC50 in MHCC97 H): 8.4 µM
- nuclear translocation of ERK [6]: inhibited the nuclear translocation of ERK
- proportion of proliferating HCC cells (EdU) ([7]; 48 h treatment): significant decrease in the proportion of proliferating HCC cells
- proliferation inhibition by KA under YWHAB overexpression (EdU) ([7]; YWHAB-overexpressing HCC cells, KA 15 μM, 48 h): partly reversed the proliferation inhibition
